IC50 data for 13 compounds are collected here from ChEMBL document CHEMBL3046009, “Synthesis of piperineamino acid ester conjugates and study of their cytotoxic activities against human cancer cell lines” (Med Chem Res, 2012).

Structures are written as SMILES. Counter-ions that a name gives are not always drawn. Bounds are passed on as bounds.

Holding throughout (assay type): functional, cell-based
The test system of one assay is PC-3. Kind of assay: Cytotoxicity against Homo sapiens (human) PC3 cells by SRB assay.
The next assay relates to COLO 205. The assay is described as follows: Cytotoxicity against Homo sapiens (human) COLO205 cells by SRB assay.
The subject of another assay is MCF7. The assay is described as follows: Cytotoxicity against Homo sapiens (human) MCF7 cells by SRB assay. Background: Sulforhodamine B stains cellular protein and so reports cell mass.
The next assay concerns IMR-32. Kind of assay: Cytotoxicity against Homo sapiens (human) IMR32 cells by SRB assay.
The test system of another assay is DU-145. The assay is described as follows: Cytotoxicity against Homo sapiens (human) DU145 cells by SRB assay.
A further assay relates to HEp-2. The assay is described as follows: Cytotoxicity against Homo sapiens (human) Hep2 cells by SRB assay.

Consider `COC(=O)[C@@H](NC(=O)/C=C/C=C/c1ccc2c(c1)OCO2)C(C)C`, for which the IC50 is 49 µM in the assay on PC-3; greater than 50 µM in the assay on COLO 205; 51 µM with MCF7; greater than 50 µM in the assay on IMR-32; 44 µM in the assay with DU-145; greater than 50 µM with HEp-2.

`COC(=O)[C@H](NC(=O)/C=C/C=C/c1ccc2c(c1)OCO2)C(C)C`: the IC50 in the assay on PC-3 is greater than 50 µM; in the assay with COLO 205 it was 51 µM; in the assay with MCF7, greater than 50 µM; in the assay with IMR-32, greater than 50 µM; with DU-145 it was greater than 50 µM; in the assay with HEp-2, greater than 50 µM.

As for `COC(=O)[C@H](CC(C)C)NC(=O)/C=C/C=C/c1ccc2c(c1)OCO2`, the IC50 with PC-3 is greater than 50 µM; in the assay with COLO 205 it was 55 µM; in the assay with MCF7, 48 µM; in the assay with IMR-32, greater than 50 µM; in the assay on DU-145, greater than 50 µM; in the assay on HEp-2 it was 43 µM.

As to `CC[C@H](C)[C@H](NC(=O)/C=C/C=C/c1ccc2c(c1)OCO2)C(=O)OC`, the IC50 in the assay with PC-3 was greater than 50 µM; in the assay with COLO 205 it was greater than 50 µM; in the assay with MCF7, 48 µM; in the assay with IMR-32, greater than 50 µM; in the assay with DU-145, greater than 50 µM; with HEp-2 it was greater than 50 µM.

Regarding `COC(=O)[C@H](CO)NC(=O)/C=C/C=C/c1ccc2c(c1)OCO2`, the IC50 was greater than 50 µM with PC-3; 36 µM with COLO 205; greater than 50 µM in the assay on MCF7; greater than 50 µM in the assay on IMR-32; greater than 50 µM in the assay on DU-145; greater than 50 µM with HEp-2.

For the compound `COC(=O)C[C@H](NC(=O)/C=C/C=C/c1ccc2c(c1)OCO2)C(=O)OC`, the IC50 in the assay with PC-3 is greater than 50 µM; in the assay on COLO 205, greater than 50 µM; in the assay on MCF7, greater than 50 µM; in the assay with IMR-32, greater than 50 µM; in the assay with DU-145, 46 µM; with HEp-2, greater than 50 µM.

On to `COC(=O)[C@H](Cc1cnc[nH]1)NC(=O)/C=C/C=C/c1ccc2c(c1)OCO2`, for which the IC50 in the assay with PC-3 is greater than 50 µM; with COLO 205, greater than 50 µM; in the assay on MCF7, greater than 50 µM; with IMR-32, greater than 50 µM; in the assay with DU-145, 21 µM; in the assay on HEp-2, greater than 50 µM.

For `COC(=O)CNC(=O)/C=C/C=C/c1ccc2c(c1)OCO2`, the IC50 was 33 µM in the assay on PC-3; greater than 50 µM in the assay with COLO 205; 44 µM with MCF7; 50 µM in the assay with IMR-32; 49 µM in the assay with DU-145; greater than 50 µM with HEp-2.

On to `COC(=O)[C@H](C)NC(=O)/C=C/C=C/c1ccc2c(c1)OCO2`, for which the IC50 in the assay on PC-3 was greater than 50 µM; in the assay on COLO 205, greater than 50 µM; with MCF7 it was greater than 50 µM; in the assay on IMR-32, greater than 50 µM; with DU-145 it was 51 µM; with HEp-2 it was greater than 50 µM.

Take `COc1cccc2c1C(=O)c1c(O)c3c(c(O)c1C2=O)C[C@@](O)(C(=O)CO)C[C@@H]3O[C@H]1C[C@H](N)[C@H](O)[C@H](C)O1` [DOXORUBICIN HYDROCHLORIDE]: the IC50 with MCF7 came out at 0.8 µM; with IMR-32 it was 0.02 µM.

With `O=c1[nH]cc(F)c(=O)[nH]1` [FLUOROURACIL], the IC50 in the assay with COLO 205 was 2.9 µM; in the assay with MCF7, 2.9 µM; in the assay with HEp-2 it was 2 µM.

Regarding `CO[C@@]12[C@H](COC(N)=O)C3=C(C(=O)C(C)=C(N)C3=O)N1C[C@@H]1N[C@@H]12` [MITOMYCIN], the results for the IC50 in the assay with PC-3 and in the assay with DU-145 were 1.4 µM and 1.8 µM, respectively.

In the case of `O=C(/C=C/C=C/c1ccc2c(c1)OCO2)N1CCCCC1` [PIPERINE], the IC50 is greater than 50 µM in the assay on PC-3; 46 µM in the assay with COLO 205; 99 µM in the assay on MCF7; 89 µM in the assay on IMR-32; greater than 50 µM with DU-145; 70 µM in the assay on HEp-2.

As a reminder, the IC50 is the concentration that gives 50% inhibition. Low readings indicate inhibition by little substance, high ones a need for much substance.
